Read-outs that look alike come from different tables or passages of the source.
Tests used:
Conditions in all cases: labelled compound; empty-vector values used to normalize
ClAAP6 [1] = system: T1, ClAAP6; experiment: [3H]Arg uptake into yeast […]Δ[…]α cells; assay type: cell-based, Citrullus lanatus
T1 construct: untagged; expressed in S. cerevisiae 22Δ10α lacking endogenous amino acid transporters

ClAAP3 [2] = system: T2, ClAAP3; experiment: [3H]Arg uptake into yeast […]Δ[…]α cells; assay type: cell-based, Citrullus lanatus
T2 construct: untagged; expressed in S. cerevisiae 22Δ10α lacking endogenous amino acid transporters

ClAAP3 [3] = system: ClAAP3
ClAAP6 [4] = system: ClAAP6

Row | SMILES | Km (ClAAP6 [1]) [µM] | Km (ClAAP3 [2]) [µM] | Km (ClAAP3 [3]) [µM] | Km (ClAAP6 [4]) [µM]
1 | N=C(N)NCCC[C@H](N)C(=O)O [Arg] | 579 ± 24.1 | 54.1 ± 7.5 | – | –
2 | O=C(O)[C@@H]1CCCN1 [Pro] | – | – | 398 ± 48.6 | 74 ± 9.8

From PMC6928636, “Broad-Spectrum Amino Acid Transporters ClAAP3 and ClAAP6 Expressed in Watermelon Fruits” (International Journal of Molecular Sciences, 2019)
